From publication PMC9962735, “Synthesis and Cytotoxic Activity of the Derivatives of N-(Purin-6-yl)aminopolymethylene Carboxylic Acids and Related Compounds” (Molecules, 2023)

Assays:
COLO201 cells = assay: Cell cycle analysis by flow cytometry (propidium iodide), COLO201; format: cell-based, human; settings: for Cell proliferation index (%) / Number of cells (%) in cell cycle phase G0/G1 / Number of cells (%) in cell cycle phase G2M / Number of cells (%) in cell cycle phase S: 24 h, M ± SD (n = 3)
Description: (§1) To study the potential cytostatic effect of compound 1d, we chose the method of cell cycle analysis using flow cytometry by DNA staining with propidium iodide.
(§2) To analyze possible effects on the cell cycle, we tested three concentrations of compound 1d, which were close to CC50 calculated on the basis of viability assessment data (MTT assay).
(§3) Cell cycle analysis was performed by flow cytometry by staining DNA with propidium iodide (PI). For this, cells were seeded into 6-well plates: 2 × 10^5 COLO201 cells per well and 1.2 × 10^5 MDA-MB-231 cells per well. […] The final concentration of DMSO in the culture medium was 0.1%; an equivalent volume was added to the control cells. The plates were incubated for 24 h in a CO2 incubator. Then, cells were detached from the plastic surface using TrypLE, washed with PBS, and fixed with 70% ethanol. Next, the cells were incubated for 1 h in the dark at 4 °C, then sedimented by centrifugation at 184× g for 10 min, and washed twice with PBS. PBS (0.3 mL) containing 0.1% Triton X-100, 1 µg/mL PI, and 0.2 mg/mL RNAse A was added to the pellet, incubated for 30 min at room temperature in the dark, and analyzed on a CytoFlex flow cytometer (Beckman Coulter, Brea, CA, USA).
(§4) The cell population in the test sample was found and gated on forward versus side scatter (FSC-A vs. SSC-A). Next, doublets were discriminated and removed via PI signal height versus PI signal area (PI-H vs. PI-A). For cell cycle phases analysis, PI-A was plotted against number of events (number of cells) (PI-A vs. Count).
(§5) The flow cytometry data were processed using the Kaluza Analysis 2.1 software (Beckman Coulter, Brea, CA, USA). Percentages of cell populations distributed in the various phases of the cell cycle (sub-G1, G0/G1, S, and G2M) were calculated. The result was considered significant if the coefficient of variation (CV) was less than 6.

MDA-MB-231 cells = assay: Cell cycle analysis by flow cytometry (propidium iodide), MDA-MB-231; format: cell-based, human; settings: 24 h; for Cell proliferation index (%) / Number of cells (%) in cell cycle phase G0/G1 / Number of cells (%) in cell cycle phase G2M / Number of cells (%) in cell cycle phase S: M ± SD (n = 3)
Description: as §1, §2, §3, §4, §5

CC1COc2c(ccc(F)c2F)N1C(=O)CCCCCCCCCCNc1ncnc2[nH]cnc12 (stereo not drawn) [Compound 1d]
Cell proliferation index (%) (COLO201 cells; COLO201, 0.9×10–6 M): 37.05% | Number of cells (%) in cell cycle phase G0/G1 (COLO201 cells; COLO201, 0.9×10–6 M): 62.95% | Number of cells (%) in cell cycle phase G2M (COLO201 cells; COLO201, 0.9×10–6 M): 15.70% | Number of cells (%) in cell cycle phase S (COLO201 cells; COLO201, 0.9×10–6 M): 21.35% | Cell proliferation index (%) (COLO201 cells; COLO201, 1×10–6 M): 36.78±0.29% | Number of cells (%) in cell cycle phase G0/G1 (COLO201 cells; COLO201, 1×10–6 M): 63.21% | Number of cells (%) in cell cycle phase G2M (COLO201 cells; COLO201, 1×10–6 M): 15.41±0.74% | Number of cells (%) in cell cycle phase S (COLO201 cells; COLO201, 1×10–6 M): 21.38% | Cell proliferation index (%) (COLO201 cells; COLO201, 2×10–6 M): 35.35% | Number of cells (%) in cell cycle phase G0/G1 (COLO201 cells; COLO201, 2×10–6 M): 64.60% | Number of cells (%) in cell cycle phase G2M (COLO201 cells; COLO201, 2×10–6 M): 16.84% | Number of cells (%) in cell cycle phase S (COLO201 cells; COLO201, 2×10–6 M): 18.51% | cell cycle arrest phase (COLO201 cells; COLO201, concentrations close to CC50, 24 h): cell cycle arrest occurred in the G2/M phase | cell proliferation index (COLO201 cells; COLO201, concentrations close to CC50, 24 h, range over the concentrations): 35–37% | Cell proliferation index (%) (MDA-MB-231 cells; MDA-MB-231, 10×10–6 M): 39.08% | Number of cells (%) in cell cycle phase G0/G1 (MDA-MB-231 cells; MDA-MB-231, 10×10–6 M): 60.92% | Number of cells (%) in cell cycle phase G2M (MDA-MB-231 cells; MDA-MB-231, 10×10–6 M): 13.74% | Number of cells (%) in cell cycle phase S (MDA-MB-231 cells; MDA-MB-231, 10×10–6 M): 25.33% | Cell proliferation index (%) (MDA-MB-231 cells; MDA-MB-231, 20×10–6 M): 37.57% | Number of cells (%) in cell cycle phase G0/G1 (MDA-MB-231 cells; MDA-MB-231, 20×10–6 M): 62.13% | Number of cells (%) in cell cycle phase G2M (MDA-MB-231 cells; MDA-MB-231, 20×10–6 M): 17.05% | Number of cells (%) in cell cycle phase S (MDA-MB-231 cells; MDA-MB-231, 20×10–6 M): 20.52% | Cell proliferation index (%) (MDA-MB-231 cells; MDA-MB-231, 30×10–6 M): 40.63% | Number of cells (%) in cell cycle phase G0/G1 (MDA-MB-231 cells; MDA-MB-231, 30×10–6 M): 59.37% | Number of cells (%) in cell cycle phase G2M (MDA-MB-231 cells; MDA-MB-231, 30×10–6 M): 27.49% | Number of cells (%) in cell cycle phase S (MDA-MB-231 cells; MDA-MB-231, 30×10–6 M): 13.13% | cell cycle arrest phase (MDA-MB-231 cells; MDA-MB-231, entire range of concentrations studied): arrest of the cell cycle in the G0/G1 phase
